Experimental data reported in patent publication US20120029177A1, “HETEROCYCLE-AMINO ACID DERIVATIVES FOR TARGETING CANCER TISSUE AND RADIOACTIVE OR NON-RADIOACTIVE LABELED COMPOUNDS THEREOF” (SNU R&DB FOUNDATION, priority 2009, published 2012).

Assays:
[1] = test system: SNU-C4 xenografted nude mice; test: PET imaging of tumor xenografted mice; type: in vivo, mouse; conditions: PET at 1 and 2 hr post-injection, FIG. 2
Procedure: Human colon cancer cell line SNU-C4 was cultured in RPMI1640 media containing 10% fetal bovine serum and harvested using trypsin. The cells were washed using 10 mL PBS and centrifugation at 3,000 rpm. Each nude mouse was injected with 2×10^5 cells/0.1 mL on the right shoulder subcutaneously. On 14 days post-injection, each 10 μCi/0.1 mL of ^68Ga labeled agent was injected into the xenografted mice through the tail vein. The injected mice were anesthetized using 2% isoflurane, PET images were obtained at 1 and 2 hr post-injection using rodent R4, microPET scanner (Concorde Microsystem Inc.). The images were analyzed using ASIPro software (Concorde Microsystem Inc.).

[2] = test system: SNU-C4 xenografted nude mice; test: Biodistribution study in SNU-C4 xenografted nude mice after intravenous injection; type: in vivo, mouse; conditions: for % ID/g Tumor: SNU-C4 tumor; for tumor uptake compared with the control heterocyclic compound (in words): SNU-C4 xenografted nude mice, 10 min to 2 hr
Procedure: Human colon cancer cell line SNU-C4 was cultured in RPMI1640 media containing 10% fetal bovine serum and harvested using trypsin. The cells were washed using 10 mL PBS and centrifugation at 3,000 rpm. Each nude mouse was injected with 2×10^5 cells/0.1 mL on the right shoulder subcutaneously. On 13 days post-injection, each 10 μCi/0.1 mL of ^68Ga labeled agent was injected into the xenografted mice through the tail vein. The injected mice were sacrificed at 10 min, 30 min, 1 hr, and 2 hr, cancer, blood, muscle, heart, liver, spleen, stomach, intestine, and bone were obtained, weighed, and their radioactivities were counted. The results were expressed as percentages of injected dose per gram tissue (% ID/g).

CT-26 cells = test: In vitro cell uptake, CT-26 (FIG. 1b); type: cell-based, mouse; conditions: controls ^68Ga-DO2A, ^68Ga-DO3A
Procedure: (§1) Human colon cancer cell line SNU-C4 was purchased from Korea Cell Line Bank (KCLB). Human thyroid cell line ARO, human liver cancer cell line Hep3B, human glioma cell line U251MG and U87MG, and mouse colon cell line CT-26 were purchased from American Type Culture Collection (ATCC). SNU-C4 and ARO were culture in RPMI1640 (Welgene Inc., Korea) and Hep3B, U251 MG, U87MG, and CT-26 were cultured in DMEM (Welgene Inc., Korea). Penicillin, streptomycin and amphotericin B (10,000 IU/mL, 10 mg/mL and 25 μg/mL, respectively, Mediatech Inc., U.S.A.) 1% mixture and fetal bovine serum (Welgene Inc., Korea) were added to all cell culture media. Cell culture was done in 37° C. incubator with supply of 5% CO2.
(§2) About 1.8×10^5 cells/mL CT-26 and 1.2×10^5 cells/mL U87MG were put into 24-well incubation plate and incubated for 20 hr. When the each well was about 80% confluent with cells, 296 kBq/0.5 mL of ^68Ga labeled agent was added to each well. Culture supernatants were discarded at each time point and cells were washed with ice-cooled Hank's balanced salt solution (HBSS, pH7.3, Gibco, U.S.A.) 2 times. The cells were dissolved by 0.5% sodium dodecylsulfate (SDS), recovered and counted using a gamma counter (Packard, Can berra Co., U.S.A.). Total protein amount in each sample was measured by bicinchonic acid (BCA, Pierce, U.S.A.) method.

Hep3B cells = test: In vitro cell uptake, Hep3B (FIG. 1c); type: cell-based, human; conditions: control ^68Ga-NOTA
U87MG cells = test: In vitro cell uptake, U87MG (FIG. 1a); type: cell-based, human; conditions: controls ^68Ga-DOTA, ^68Ga-NOTA
Procedure: as §1, §2

[3] = 10 min after intravenous injection
[4] = 30 min after intravenous injection
[5] = 1 hr after intravenous injection
[6] = 2 hr after intravenous injection

N[C@@H](CN1CCN(CC(=O)[O-])CCN(CC(=O)[O-])CCN(CC(=O)[O-])CC1)C(=O)O.[68Ga+3] (stereo in doubt) [^68Ga-DO3A-ala]
tumor uptake in PET images [1]: high tumor uptakes | % ID/g Tumor [2, 3]: 3.22 ± 0.90 % ID/g | % ID/g Tumor [2, 4]: 2.49 ± 0.40 % ID/g | % ID/g Tumor [2, 5]: 2.44 ± 0.46 % ID/g | % ID/g Tumor [2, 6]: 2.98 ± 0.58 % ID/g | tumor uptake compared with the control heterocyclic compound (in words) [2]: higher and increasing by time | % ID/g Blood [2, 3]: 11.12 ± 0.49 % ID/g | % ID/g Blood [2, 4]: 8.35 ± 0.29 % ID/g | % ID/g Blood [2, 5]: 7.97 ± 1.29 % ID/g | % ID/g Blood [2, 6]: 6.07 ± 1.13 % ID/g | % ID/g Bone [2, 3]: 4.06 ± 0.44 % ID/g | % ID/g Bone [2, 4]: 3.63 ± 0.49 % ID/g | % ID/g Bone [2, 5]: 4.73 ± 0.69 % ID/g | % ID/g Bone [2, 6]: 5.00 ± 2.41 % ID/g | % ID/g Heart [2, 3]: 2.70 ± 0.18 % ID/g | % ID/g Heart [2, 4]: 1.80 ± 0.22 % ID/g | % ID/g Heart [2, 5]: 1.69 ± 0.40 % ID/g | % ID/g Heart [2, 6]: 1.30 ± 0.40 % ID/g | % ID/g Intestine [2, 3]: 2.48 ± 0.13 % ID/g | % ID/g Intestine [2, 4]: 1.74 ± 0.14 % ID/g | % ID/g Intestine [2, 5]: 1.87 ± 0.33 % ID/g | % ID/g Intestine [2, 6]: 4.38 ± 1.14 % ID/g | % ID/g Kidney [2, 3]: 60.06 ± 14.07 % ID/g | % ID/g Kidney [2, 4]: 9.10 ± 2.19 % ID/g | % ID/g Kidney [2, 5]: 4.82 ± 0.99 % ID/g | % ID/g Kidney [2, 6]: 6.06 ± 2.27 % ID/g | % ID/g Liver [2, 3]: 2.58 ± 0.07 % ID/g | % ID/g Liver [2, 4]: 2.30 ± 0.13 % ID/g | % ID/g Liver [2, 5]: 2.35 ± 0.25 % ID/g | % ID/g Liver [2, 6]: 2.52 ± 0.41 % ID/g | % ID/g Lung [2, 3]: 13.60 ± 2.37 % ID/g | % ID/g Lung [2, 4]: 9.35 ± 1.00 % ID/g | % ID/g Lung [2, 5]: 8.40 ± 1.17 % ID/g | % ID/g Lung [2, 6]: 8.04 ± 0.83 % ID/g | % ID/g Muscle [2, 3]: 3.52 ± 0.42 % ID/g | % ID/g Muscle [2, 4]: 2.03 ± 0.41 % ID/g | % ID/g Muscle [2, 5]: 1.38 ± 0.39 % ID/g | % ID/g Muscle [2, 6]: 1.33 ± 0.48 % ID/g | % ID/g Spleen [2, 3]: 2.59 ± 0.30 % ID/g | % ID/g Spleen [2, 4]: 2.33 ± 0.15 % ID/g | % ID/g Spleen [2, 5]: 2.33 ± 0.44 % ID/g | % ID/g Spleen [2, 6]: 2.19 ± 0.35 % ID/g | % ID/g Stomach [2, 3]: 1.97 ± 0.18 % ID/g | % ID/g Stomach [2, 4]: 1.53 ± 0.17 % ID/g | % ID/g Stomach [2, 5]: 1.53 ± 0.37 % ID/g | % ID/g Stomach [2, 6]: 11.42 ± 5.04 % ID/g | tumor cell uptake versus control agents (CT-26 cells): significantly increase tumor cell uptakes

NC(CNC(=O)CN1CCN(CC(=O)[O-])CCN(CC(=O)[O-])CC1)C(=O)[O-].[68Ga+3] (stereo not drawn) [^68Ga-NOTA-ala]
PET image quality [1]: the highest quality image | tumor uptake in PET images [1]: high tumor uptakes | % ID/g Tumor [2, 3]: 2.87 ± 0.58 % ID/g | % ID/g Tumor [2, 4]: 1.40 ± 0.43 % ID/g | % ID/g Tumor [2, 5]: 0.73 ± 0.25 % ID/g | % ID/g Tumor [2, 6]: 0.61 ± 0.34 % ID/g | tumor uptake compared with the control heterocyclic compound (in words) [2]: higher and increasing by time | tumor uptake relative to that of ^68Ga-NOTA ([2]; at 10 min): 1.07 times | tumor uptake relative to that of ^68Ga-NOTA ([2]; at 30 min): 1.09 times | tumor uptake relative to that of ^68Ga-NOTA ([2]; at 1 hr): 1.24 times | tumor uptake relative to that of ^68Ga-NOTA ([2]; at 2 hr): 1.42 times | % ID/g Blood [2, 3]: 7.46 ± 0.78 % ID/g | % ID/g Blood [2, 4]: 2.69 ± 0.59 % ID/g | % ID/g Blood [2, 5]: 0.73 ± 0.05 % ID/g | % ID/g Blood [2, 6]: 0.15 ± 0.03 % ID/g | % ID/g Bone [2, 3]: 2.22 ± 0.34 % ID/g | % ID/g Bone [2, 4]: 1.05 ± 0.35 % ID/g | % ID/g Bone [2, 5]: 0.47 ± 0.09 % ID/g | % ID/g Bone [2, 6]: 0.10 ± 0.07 % ID/g | % ID/g Heart [2, 3]: 2.13 ± 0.13 % ID/g | % ID/g Heart [2, 4]: 0.71 ± 0.17 % ID/g | % ID/g Heart [2, 5]: 0.26 ± 0.03 % ID/g | % ID/g Heart [2, 6]: 0.10 ± 0.05 % ID/g | % ID/g Intestine [2, 3]: 1.74 ± 0.22 % ID/g | % ID/g Intestine [2, 4]: 0.77 ± 0.19 % ID/g | % ID/g Intestine [2, 5]: 0.44 ± 0.07 % ID/g | % ID/g Intestine [2, 6]: 0.35 ± 0.11 % ID/g | % ID/g Kidney [2, 3]: 20.96 ± 7.35 % ID/g | % ID/g Kidney [2, 4]: 9.07 ± 1.68 % ID/g | % ID/g Kidney [2, 5]: 5.81 ± 0.57 % ID/g | % ID/g Kidney [2, 6]: 4.04 ± 0.63 % ID/g | % ID/g Liver [2, 3]: 2.08 ± 0.25 % ID/g | % ID/g Liver [2, 4]: 1.34 ± 0.22 % ID/g | % ID/g Liver [2, 5]: 1.05 ± 0.04 % ID/g | % ID/g Liver [2, 6]: 0.84 ± 0.18 % ID/g | % ID/g Muscle [2, 3]: 2.29 ± 0.52 % ID/g | % ID/g Muscle [2, 4]: 0.87 ± 0.33 % ID/g | % ID/g Muscle [2, 5]: 0.26 ± 0.05 % ID/g | % ID/g Muscle [2, 6]: 0.06 ± 0.04 % ID/g | % ID/g Spleen [2, 3]: 1.84 ± 0.10 % ID/g | % ID/g Spleen [2, 4]: 0.93 ± 0.14 % ID/g | % ID/g Spleen [2, 5]: 0.55 ± 0.07 % ID/g | % ID/g Spleen [2, 6]: 0.48 ± 0.11 % ID/g | % ID/g Stomach [2, 3]: 2.46 ± 0.31 % ID/g | % ID/g Stomach [2, 4]: 0.79 ± 0.17 % ID/g | % ID/g Stomach [2, 5]: 0.33 ± 0.08 % ID/g | % ID/g Stomach [2, 6]: 0.18 ± 0.05 % ID/g | tumor cell uptake versus control agents (Hep3B cells): significantly increase tumor cell uptakes | tumor cell uptake versus control agents (U87MG cells): significantly increase tumor cell uptakes
